Molecular target: HSPA5-FL (Homo sapiens, UniProt P11021)
Experiment: ITC, liposomes titrated into protein
Format: binding

Chain of HSPA5-FL (P11021 25-654): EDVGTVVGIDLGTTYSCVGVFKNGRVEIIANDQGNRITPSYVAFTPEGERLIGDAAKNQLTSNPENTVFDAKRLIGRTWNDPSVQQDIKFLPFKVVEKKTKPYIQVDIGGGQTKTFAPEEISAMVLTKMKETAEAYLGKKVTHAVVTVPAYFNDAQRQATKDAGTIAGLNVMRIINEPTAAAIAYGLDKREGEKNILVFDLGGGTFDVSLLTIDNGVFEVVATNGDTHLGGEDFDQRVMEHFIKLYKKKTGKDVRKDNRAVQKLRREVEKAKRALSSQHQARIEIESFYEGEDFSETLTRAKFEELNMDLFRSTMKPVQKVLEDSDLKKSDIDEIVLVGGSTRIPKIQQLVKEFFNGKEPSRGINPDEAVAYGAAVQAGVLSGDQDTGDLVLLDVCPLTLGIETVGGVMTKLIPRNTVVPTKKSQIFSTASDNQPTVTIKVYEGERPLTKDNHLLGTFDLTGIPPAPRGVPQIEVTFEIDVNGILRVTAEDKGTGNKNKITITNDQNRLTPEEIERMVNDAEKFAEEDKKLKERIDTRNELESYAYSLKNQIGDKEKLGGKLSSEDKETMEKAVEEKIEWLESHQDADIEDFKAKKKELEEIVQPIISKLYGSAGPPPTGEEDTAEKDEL

| Kd [nM] | Compound |
| --- | --- |
| 1600 ± 500 | CCCCCCCCCCCCCC(=O)OC[C@H](COP(=O)(O)OCC(O)COP(=O)(O)OC[C@@H](COC(=O)CCCCCCCCCCCCC)OC(=O)CCCCCCCCCCCCC)OC(=O)CCCCCCCCCCCCC (some centres unmarked) [CL, 1′,3′-bis[1,2-dimyristoyl-sn-glycero-3-phospho]-glycerol] |
| 3500 ± 800 | CCCCCCCC/C=C\CCCCCCCC(=O)O[C@H](COC(=O)CCCCCCCCCCCCCCC)COP(=O)(O)OC[C@H](N)C(=O)O [POPS] |

Reference: paper PMC7385938 (Cell Stress & Chaperones, 2020)
